Laboratory results published in US7390870B2, “Immune-enhancing peptides” (Posco, priority 2001, dated 2008).

Experiments:
[1] = system: monocytes; assay: Effect of enzyme inhibitors on peptide-induced monocyte chemotaxis; type: cell-based, human; details: FIG. 10; for inhibition of MFYLPM-induced chemotaxis: 1 μM MFYLPM
Method: (§1) Chemotaxis assays of the peptide were performed using multiwell chambers (Neuroprobe Inc., Gaithersburg, Md.) (20). Briefly, the prepared isolated human monocytes were suspended in RPMI at a concentration of 1×10^6 cells/ml of serum-free RPMI, and 25 □ of the suspension were placed onto the upper well of a 96-well chemotaxis chamber that was separated by a […] filter with a 5 □ pore size (3 □ diameter pores not coated with polyvinylpyrrolidone for neutrophils) from peptides or an fMLF-containing lower well. After incubation for 2 hours (90 minutes for neutrophils) at 37° C., non-migrated cells were removed by scraping them out, and cells that migrated across the filter were dehydrated, fixed, and stained with hematoxylin (Sigma, St. Louis, Mo.). The stained cells in five randomly chosen high power fields (HPF) (400×) in that well were then counted (21). The numbers of migrated cells were determined by counting them in a high power field (400×). For a checkboard analysis, cells were re-suspended in RPMI containing various concentrations of the peptide just before transferring them to the upper wells as described before (22).
Monocytes were pretreated either with LY (LY294002, 50 μM), GFX (GF109203X, 5 μM), or PD (PD98059, 50 μM), or they remained untreated for the control After an incubation of the indicated periods (15 minutes for LY294002 and GF109203X, 60 minutes for PD98059), the cells were washed twice and used for chemotaxis assay. 25 □ of monocytes at 1×10^6 cells/ml were added to the upper wells and allowed to migrate for 2 hrs at 37° C. (humidified atmosphere; 5% CO2) toward each peptide (1 μM HFYLPM, 1 μM MFYLPM, or 10 nM HFYLPm) or medium. After fixing and staining of the membrane, the numbers of migrated cells were determined by counting them in a high power field (400×). The results are shown FIG. 10. The data are presented as means ±S.E. of three independent experiments each performed in duplicate. *P<0.01 versus medium treatment and †P<0.01 versus peptide treatment, respectively.

[2] = system: monocytes; assay: Effect of PTX on peptide-induced chemotactic migration in monocytes; type: cell-based, human; details: FIG. 8, PTX preincubation 90 minutes
Method: as §1
Several extracellular signals including many chemoattractants activate phagocytic cells via pertussis toxin (PTX)-sensitive G-protein(s) (27-29). Therefore, the involvement of PTX-sensitive G-protein(s) on the peptide-induced monocyte activation was examined. Monocytes were preincubated with PTX (1 □/ml) or vehicle only for 90 minutes at 37° C. The cells were used for chemotaxis assay with HFYLPM (1 μM), MFYLPM (1 μM), HFYLPm (100 nM), and fMLF (100 nM). The numbers of migrated cells were determined by counting them in a high power field (400×). The results are illustrated in FIG. 8. The data of FIG. 8 are presented as means±S.E. of two independent experiments each performed in duplicate. *P<0.01 versus medium treatment and †P<0.01 versus peptide treatment, respectively.

[3] = LY294002 50 μM, GF109203X 5 μM, PD98059 50 μM, 10 nM HFYLPm
[4] = LY294002 50 μM, GF109203X 5 μM, PD98059 50 μM

Compound	inhibition of HFYLPm-induced chemotaxis ([1]; LY294002 50 μM, GF109203X 5 μM, 15 minutes pretreatment, 1 μM HFYLPM) [%]	inhibition of HFYLPm-induced chemotaxis [1, 3]	inhibition of MFYLPM-induced chemotaxis [1, 4]	inhibition at 50 µM ([1]; Homo sapiens, Monocyte, LY294002 50 μM, GF109203X 5 μM, 15 minutes pretreatment, 1 μM HFYLPM) [%]	inhibition of HFYLPm-induced chemotaxis ([1]; PD98059 50 μM, 60 minutes pretreatment, 1 μM HFYLPM)	inhibition of HFYLPm-induced monocyte chemotaxis ([2]; HFYLPM 1 μM)	inhibition of HFYLPm-induced monocyte chemotaxis ([2]; HFYLPm 100 nM)	inhibition of MFYLPM-induced monocyte chemotaxis ([2]; MFYLPM 1 μM)	inhibition of fMLF-induced monocyte chemotaxis ([2]; fMLF 100 nM)
CN(C)CCCn1cc(C2=C(c3c[nH]c4ccccc34)C(=O)NC2=O)c2ccccc21 [GF109203X]	~50	no effect	no effect	–	–	–	–	–	–
O=c1cc(N2CCOCC2)oc2c(-c3ccccc3)cccc12 [LY294002]	–	no effect	no effect	~75	–	–	–	–	–
COc1cccc(-c2cc(=O)c3ccccc3o2)c1N [PD98059]	–	almost complete inhibition	almost complete inhibition	–	almost complete inhibition	–	–	–	–
pertussis toxin [PTX]	–	–	–	–	–	complete inhibition	complete inhibition	complete inhibition	completely blocked
